According to patent US20250032458A1, “TREATMENT OF CANCER WITH AN FGFR KINASE INHIBITOR” (Kinnate Biopharma Inc., priority 2021, published 2025):
Like-named read-outs stand apart in the source and are kept apart here.

Key:
SNU-16 cells = assay: Cell proliferation, 5-day CellTiter-Glo; format: cell-based; details: Homo sapiens, 120 h; SNU-16, 5 days; read-out: 5-Day CTG EC50
KATO-III cells = assay: Cell proliferation, 5-day CellTiter-Glo; format: cell-based; details: Homo sapiens, 120 h, 5 days, read-out: 5-Day CTG EC50
RT-112 cells = assay: Cell proliferation, 5-day CellTiter-Glo; format: cell-based; details: Homo sapiens, 120 h; RT-112, 5 days; read-out: 5-Day CTG EC50
RT-4 cells = assay: Cell proliferation, 5-day CellTiter-Glo; format: cell-based; details: Homo sapiens, 120 h; RT-4, 5 days; read-out: 5-Day CTG EC50
SW-780 cells = assay: Cell proliferation, 5-day CellTiter-Glo; format: cell-based; details: Homo sapiens, SW780, 120 h; SW-780, 5 days; read-out: 5-Day CTG EC50
[1] = system: human RT-112 urinary bladder transitional cell carcinoma xenograft (FGFR3-TACC3 fusion); details: for ΔT/ΔC / Final TV: 21 days; for Final TV: mean ± SEM
Excerpt: (§1) Groups and treatments were started when the mean tumor volume reached approximately 200-250 mm^3. Mice were assigned to respective groups based on their starting tumor volume and body weight such that the average values for both parameters were balanced for each treatment group.

[2] = system: human SNU-16 gastric cancer xenograft (FGFR2 gene amplification); details: for ΔT/ΔC / Final TV: 21 days; for Final TV: mean ± SEM
Excerpt: as §1

[3] = Exposure in mice bearing RT-112 xenografts; details: mouse, in vivo, PO QD 2-15 mg/kg, 24-hour period following the last dose
Procedure: (§2) Three animals in the 15 mg/kg cohort lost >10% of their body weight during the course of treatment but recovered by end of study.

[4] = Exposure in mice bearing SNU-16 xenografts; details: mouse, in vivo, PO QD 2-15 mg/kg, 24-hour period following the last dose
[5] = Tolerability / body weight in RT-112 xenograft mice; format: in vivo; details: RT-112 model
Procedure: as §2

[6] = Tolerability / body weight in SNU-16 xenograft mice; format: in vivo; details: SNU-16 model, all tested doses and schedules; lack of significant body weight changes
Excerpt: […]. Treatment was initiated when tumor volumes were approximately 200-250 mm^3 (actual mean TV for all groups was 262 mm^3).

TNK1 = target: T1, TNK1 (Homo sapiens, UniProt Q13470); assay: Kinome selectivity screen by mobility shift assay (321 kinases); details: read-out: % Inhibition 1 μM
T1 sequence (Q13470 1-666): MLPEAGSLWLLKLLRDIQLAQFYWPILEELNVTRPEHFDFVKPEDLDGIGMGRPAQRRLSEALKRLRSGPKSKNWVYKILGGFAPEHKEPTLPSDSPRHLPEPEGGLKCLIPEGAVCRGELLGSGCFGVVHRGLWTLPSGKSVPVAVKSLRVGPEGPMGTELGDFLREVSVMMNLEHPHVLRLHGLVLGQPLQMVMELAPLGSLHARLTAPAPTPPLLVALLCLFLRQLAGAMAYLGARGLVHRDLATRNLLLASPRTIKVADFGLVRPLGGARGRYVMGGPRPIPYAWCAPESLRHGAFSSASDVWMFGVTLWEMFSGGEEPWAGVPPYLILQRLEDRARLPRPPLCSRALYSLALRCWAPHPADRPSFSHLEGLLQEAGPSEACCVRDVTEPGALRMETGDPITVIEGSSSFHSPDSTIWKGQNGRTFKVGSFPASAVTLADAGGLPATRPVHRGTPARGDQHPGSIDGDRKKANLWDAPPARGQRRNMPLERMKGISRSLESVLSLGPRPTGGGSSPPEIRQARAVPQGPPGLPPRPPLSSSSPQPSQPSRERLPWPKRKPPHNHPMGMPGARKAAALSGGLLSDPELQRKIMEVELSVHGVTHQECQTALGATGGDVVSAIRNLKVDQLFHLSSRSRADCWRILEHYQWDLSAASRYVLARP

LOK (AKA STK10) = LOK (AKA STK10) (Homo sapiens, UniProt O94804); assay: as above; details: read-out: % Inhibition 1 μM
LOK (AKA STK10), sequence (O94804 whole entry): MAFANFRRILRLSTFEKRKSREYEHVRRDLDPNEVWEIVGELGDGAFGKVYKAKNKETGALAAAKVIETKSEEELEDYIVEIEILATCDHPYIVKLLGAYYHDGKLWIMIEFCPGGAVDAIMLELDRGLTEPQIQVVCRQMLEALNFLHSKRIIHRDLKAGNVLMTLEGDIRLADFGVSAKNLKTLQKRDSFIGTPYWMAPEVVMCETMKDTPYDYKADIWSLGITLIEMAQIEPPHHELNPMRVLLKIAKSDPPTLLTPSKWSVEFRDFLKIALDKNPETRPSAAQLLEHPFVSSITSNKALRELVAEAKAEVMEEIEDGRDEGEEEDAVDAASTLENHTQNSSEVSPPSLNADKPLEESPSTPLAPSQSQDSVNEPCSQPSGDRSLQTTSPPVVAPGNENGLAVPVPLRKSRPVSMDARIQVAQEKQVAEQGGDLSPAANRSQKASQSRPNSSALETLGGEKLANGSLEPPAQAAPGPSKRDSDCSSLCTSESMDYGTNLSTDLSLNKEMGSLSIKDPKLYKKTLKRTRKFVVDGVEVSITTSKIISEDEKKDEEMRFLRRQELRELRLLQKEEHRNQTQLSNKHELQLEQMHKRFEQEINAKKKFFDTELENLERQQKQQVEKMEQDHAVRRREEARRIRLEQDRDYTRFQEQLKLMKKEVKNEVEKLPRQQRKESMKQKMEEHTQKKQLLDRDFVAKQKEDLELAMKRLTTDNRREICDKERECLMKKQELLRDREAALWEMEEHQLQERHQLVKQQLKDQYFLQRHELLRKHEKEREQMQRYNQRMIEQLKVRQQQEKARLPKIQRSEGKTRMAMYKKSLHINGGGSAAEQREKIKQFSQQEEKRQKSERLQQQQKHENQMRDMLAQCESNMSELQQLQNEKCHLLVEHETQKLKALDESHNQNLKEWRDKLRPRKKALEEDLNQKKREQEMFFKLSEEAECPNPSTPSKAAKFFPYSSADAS

panel of 321 kinases = assay: Kinome selectivity screen by mobility shift assay (whole panel); details: 1 μM
[7] = system: endogenous FGFR in five human tumor cell lines; details: read-out: EC50 values, inhibition of endogenous FGFR

**Q.** Which EC50 (SNU-16 cells) does the source give for `C=CC(=O)N1C[C@@H](n2nc(C#Cc3c(F)cc4c(ncn4C4CC4)c3F)c(C(N)=O)c2NC)C[C@@H]1COC` [Compound 1, 1-((3S,5R)-1-acryloyl-5-(methoxymethyl)pyrrolidin-3-yl)-3-((1-cyclopropyl-4,6-difluoro-1H-benzo[d]imidazol-5-yl)ethynyl)-5-(methylamino)-1H-pyrazole-4-carboxamide] here?
**A.** Its EC50 is 3.89 nM.

**Q.** What about the EC50 (KATO-III cells) of the same compound?
**A.** The EC50 was 5.19 nM.

**Q.** What about the EC50 (RT-112 cells) of the same compound?
**A.** Its EC50 is 4.14 nM.

**Q.** What about the EC50 (RT-4 cells) of the same compound?
**A.** Its EC50 is 5.96 nM.

**Q.** And the EC50 (SW-780 cells)?
**A.** Its EC50 is 4.14 nM.

**Q.** And the ΔT/ΔC ([1]; RT-112, 2 mg/kg QD PO)?
**A.** The ΔT/ΔC was 20%.

**Q.** What about the “Final TV” value ([1]; RT-112, 2 mg/kg QD PO) of the same compound?
**A.** Its value is 446 ± 49 mm^3.

**Q.** What about the “animals exhibiting tumor regression” value ([1]; RT-112, 5 mg/kg QD) of the same compound?
**A.** Its value is 4 of 9.

**Q.** And the ΔT/ΔC ([1]; RT-112, 5 mg/kg QD PO)?
**A.** The ΔT/ΔC was 9%.

**Q.** What about the “Final TV” value ([1]; RT-112, 5 mg/kg QD PO) of the same compound?
**A.** Its value is 343 ± 57 mm^3.

**Q.** What about the “animals exhibiting tumor regression” value ([1]; RT-112, 15 mg/kg QD) of the same compound?
**A.** Its value is 4 of 9.

**Q.** And the ΔT/ΔC ([1]; RT-112, 15 mg/kg QD PO)?
**A.** Its ΔT/ΔC is 1%.

**Q.** And the “Final TV” value ([1]; RT-112, 15 mg/kg QD PO)?
**A.** Its value is 274 ± 48 mm^3.

**Q.** And the ΔT/ΔC ([2]; SNU-16, 2 mg/kg QD PO)?
**A.** Its ΔT/ΔC is 31%.

**Q.** And the “Final TV” value ([2]; SNU-16, 2 mg/kg QD PO)?
**A.** The value was 497 ± 22 mm^3.

**Q.** And the ΔT/ΔC ([2]; SNU-16, 5 mg/kg QD PO)?
**A.** Its ΔT/ΔC is 19%.

**Q.** What about the “Final TV” value ([2]; SNU-16, 5 mg/kg QD PO) of the same compound?
**A.** The value was 410 ± 20 mm^3.

**Q.** What about the ΔT/ΔC ([2]; SNU-16, 15 mg/kg QD PO) of the same compound?
**A.** The ΔT/ΔC was 7%.

**Q.** What about the “Final TV” value ([2]; SNU-16, 15 mg/kg QD PO) of the same compound?
**A.** Its value is 313 ± 13 mm^3.

**Q.** What about the “animals with tumor regression” value ([2]; SNU-16, 15 mg/kg QD cohort) of the same compound?
**A.** The value was “one”.

**Q.** What about the AUC(0-t) [3] of the same compound?
**A.** The AUC(0-t) was 1320 to 9760 ng·h/mL.

**Q.** What about the AUC(0-t) [4] of the same compound?
**A.** The AUC(0-t) was 1090 to 9760 ng·h/mL.

**Q.** What about the average weight loss ([5]; 15 mg/kg QD) of the same compound?
**A.** The average weight loss was 5.4%.

**Q.** What about the “animals that lost >10% of their body weight during treatment (recovered by end of study)” value ([5]; 15 mg/kg cohort (9 animals)) of the same compound?
**A.** Its value is “Three”.

**Q.** And the tolerability ([5]; all of the tested doses (2, 5, 15 mg/kg QD))?
**A.** Its tolerability is “well tolerated”.

**Q.** What about the tolerability [6] of the same compound?
**A.** Its tolerability is “well tolerated”.

**Q.** What about the inhibition at 1 µM (TNK1) of the same compound?
**A.** The inhibition at 1 µM was 89.5%.

**Q.** And the inhibition at 1 µM (LOK (AKA STK10))?
**A.** Its inhibition at 1 µM is 64.6%.

**Q.** And the “number of non-FGFR kinases with >40% inhibition” value (panel of 321 kinases)?
**A.** The value was 2.

**Q.** And the EC50 [7]?
**A.** Its EC50 is 1 to 6 nM.
